From patent publication US7022484B2, “Methods for treating neuropathological states and neurogenic inflammatory states and methods for identifying compounds useful therein” (Board of Regents, The University of Texas System, priority 2000, dated 2006)

What was measured:
TNFα = TNFα release by ELISA from SW982 synovial cells treated with NMDA and ACPD; assay type: cell-based, human; settings: 24 hours, NMDA (5 mM) and ACPD (5 mM), K252a (100 nM)
Method: The cultured cell lines used in these studies were the human neuroblastoma clonal line, SHSY5Y, and the human synovial sarcoma clonal line, SW982, both available through the American Tissue Type Culture Collection (item number CRL 2266 and HTB-93, respectively). Cells were grown in Dulbecco's Modification of Eagles Medium (DMEM) without L-glutamine, with 4.5 grams/Liter glucose, and with 10% bovine fetal serum in a tissue culture incubator at 37° C. in a gaseous mixture of O2/CO2. Cells were routinely split as necessary to maintain proper cell density. Cells were removed from plates by adding TRYPSIN/EDTA in Hank's Balanced Salt solution. After cell counts, approximately 10,000 cells were plated per well in a culture dish. For experiments, the cells were plated into 35 mm Petri dishes or 6- or 24-well plates as needed.
For detection of released Tumor Necrosis Factor alpha (TNFα) and some western blot experiments, cells were exposed to the two glutamate agonists NMDA (5 mM) and ACPD (5 mM), in the presence or absence of the tyrosine kinase inhibitors Genistein […] or K252a (100 nM). […]
The release of the inflammatory mediator and initiator of inflammatory cascades, TNFα was measured by ELISA using a commercially available kit (R&D Quantikine, Catalog Number DTA50) specific for human TNFα. […]

rat arthritis model [1] = assay: Paw withdrawal latency (PWL) to radiant heat in rat kaolin/carrageenan knee joint inflammation model; assay type: in vivo; settings: for development of secondary hyperalgesia: spinal microdialysis pre-treatment, 4 hours after induction of arthritis
Method: All studies followed the guidelines of the Institute Animal Care and Use Committee, in accordance with the guidelines of the National Institutes of Health. All animals were hosted in a room with a constant ambient temperature of 22° C. and 12 hour light/dark cycle with free access to food and water. Eighty-five Sprague-Dawley rats (250–300 grams) total were used in experiments conducted for biochemical, behavioral, and immunocytochemistry studies. […] On Day 2 baseline behavioral testing was followed by infusion of agents for 1.5 hours (pretreatment) prior to induction of knee joint inflammation under brief anesthesia. Behavioral testing was repeated 4 hours after induction of joint inflammation. Anesthetized animals were either transcardially perfused with aldehydes for immunohistochemical studies or fresh, frozen tissues collected for biochemical studies.
A microdialysis fiber was implanted into the spinal dorsal horn of anesthetized rats (sodium pentobarbital, 50 mg/kg) one day prior to the induction of arthritis according to the procedure of Skilling et al. (J. Neurochem., 51:127–132 (1988)), as described in Sluka et al. (Neurosci. Lett., 145:141–144 (1992)). Briefly, a small midline incision was made in the skin over the T12 vertebral level. The vertebrae were cleared of muscle and two 1 millimeter (mm) holes were drilled in the lateral aspect of both sides of the T12 vertebrae to expose the L4 spinal segment. A microdialysis fiber ([…], 45,000 MW cut-off, Hospal, AN69, Hospal Industrie, Meyzieu, France), was passed transversely across the deep dorsal horn and stabilized with dental cement. The microdialysis fiber was then passed through the holes in the vertebrae and transversely through the dorsal horn of the spinal cord. A 2 mm section of the microdialysis fiber lies in the dorsal horn at the level of L3–4 segment. The tubing was coated with epoxy except for a permeable portion passing through the spinal grey matter. The microdialysis fiber was connected to PE20 tubing (Becton Dickinson and Company, San Mateo, Calif.) which was tunneled under the skin to the nape of the neck. Alternatively as a systemic control for drug administration, the microdialysis fiber was implanted only in the subcutaneous tissue over the back muscle and tunneled to the neck. Artificial cerebrospinal fluid (aCSF) was made as described by Sorkin et al. (J. Neurosci. Methods, 23, 131–138 (1988)) and was infused (5 microliters/minute) for 1.5 hours and then the tube was heat-sealed for use on the following day.
Dose response curves were generated for Genistein with animals receiving Genistein spinally at concentration of 0.2 mM (n=3), 0.5 mM (n=3), 1 mM (n=9), and 2 mM (n=3). Animals received Lavendustin A or B spinally at concentrations of 0.1 mM (n=3), 0.5 mM (n=3), and 1 mM (n=5) as a positive and negative control for Genistein. […] Daidzein was tested at a dose of 1 mM (n=3). […] Eight additional animals received the vehicle, 50% DMSO in aCSF, as a control.
(§1) An acute inflammatory response restricted to the knee joint can be induced by the injection of 3% kaolin and 3% carrageenan (in sterile saline; 0.1 ml; pH 7.4) into the joint cavity while the animal is briefly anesthetized with sodium methohexital (Brevital, 60 mg/kg, i.p.). Kaolin and carrageenan were obtained from Fisher Scientific, St. Louis, Mo. The knee joint is flexed manually until the rat awakes (approximately 5–10 minutes). In this arthritis model in the awake rat, localized joint swelling, as well as limping and guarding of the limb, are well developed at 4 hours (Sluka et al., Pain, 59, 95–100 (1994)) when behavioral testing begins.
Fifty-five rats were used for behavioral studies. Four hours after induction of the arthritis, the joint is swollen and increased withdrawal responses to radiant heat and spontaneous guarding of the limb were noted. The increased responsiveness to noxious stimuli indicates the presence of secondary hyperalgesia. […]

rat arthritis model [2] = assay: Knee joint circumference and joint temperature in kaolin/carrageenan knee joint inflammation model; assay type: in vivo; settings: 4 hours after kaolin/carrageenan; spinal pre-treatment
Method: as §1
Knee joint circumference is measured in centimeters (cm) with a flexible tape measure around the center of the knee joint while the joint is held in extension as done with patients in the clinical setting as an indication of increases in joint volume. The knee joints of anesthetized rats are measured before (baseline) and four hours following injection of the knee joint with kaolin and carrageenan.
Temperature readings were documented numerically with a temperature probe after the rat is reanesthetized with sodium pentobarbital (50 mg/kg, i.p.) just prior to perfusion with aldehydes for histological preservation. Comparative temperature differences were made between the baseline temperature and the temperature four hours after induction of inflammation.

NMDA currents = settings: patch clamp studies; cited from earlier work
[3] = tested on: NMDA receptor subunit NR1; assay: Immunocytochemical localization of NMDA receptor subunit NR1 in spinal cord of arthritic rats; assay type: in vivo, rat; settings: 4 hours, Genistein 1 mM spinal pre-treatment, cycloheximide 100 mg/kg i.p.
From the text: Cycloheximide (100 milligrams per kilogram (mg/kg) intraperitoneal (i.p.) was used in some studies to determine if the alterations observed for the NMDA NR1 receptor subunit could be attributed to newly synthesized NR1 protein.
Twenty-four rats in 3 separate groups were used for immunocytochemical studies. One group of rat (n=8) was a naive control. The other 2 groups (n=16) of rats received surgical placement of the microdialysis fiber placement. On the day after microdialysis fiber placement, the animals were treated spinally with either Genistein (1 mM) or vehicle (50% DMSO in aCSF) for 1.5 hours (n=8 for each group). Then the left knee joint of all sixteen rats was injected with 0.1 ml of kaolin and carrageenan.
Animals were anesthetized and transcardially perfused with a brief warm saline rinse followed by fixative solution (4% paraformaldehyde in 0.1 M phosphate buffer, pH 7.4). The tissues were soaked overnight in 30% buffered sucrose and cut at 30 microns on a sliding microtome. For light microscopy, the tissues from animals (n=8) were permeabilized with a 50% buffered ethanol treatment. Tissue sections were then stained immunocytochemically for glutamate receptor subunit NR1 and phospho-NR1. Primary antibodies to be used for staining include anti-NMDA NR1 NMDA receptor (0.5–1 milligrams per milliliter (mg/ml)) purchased from Chemlcon Inc. (Pittsburgh, Pa.). Other neurotransmitter and receptor primary antibodies against NMDA NR2C, mGluR1, and mGluR5 were used as stain specificity controls. The primary antibodies were diluted in phosphate buffered saline (PBS, pH 7.6) with 0.1% BSA for overnight incubation on the spinal cord tissues. After washing in PBS, the tissue sections were incubated in the appropriate secondary antibody, either anti-mouse or anti-rabbit IgG (1:100, 30 minutes) and in avidin-biotin complex (ABC, 1:100, Vector Laboratories, Burlingame, Calif.). Sections were reacted with diaminobenzidine (DAB) solution (1.5 mg/ml) as the chromogen and peroxide (0.5 mg/ml) to produce a dense reaction product. To further intensify the reaction product particularly for visualization of nuclear rings, some tissues were reacted with colloidal gold conjugated IgG and reacted with a silver chloride solution to produce an intense black reaction product (Takizawa et al., J. Histochemistry & Cytochemistry, 42, 1615–1623 (1994)).
Immunocytochemical controls included sections processed in the absence of the primary or secondary antibody or ABC reagents. The specificity of the transmitter antibodies was confirmed by appearance of a single band by Western blot. In addition to use of the C-terminus NR1 antibody from ChemIcon, an antibody directed to the N-terminus of the NR1 protein was used as control (1 mg/ml; BD PharMingen, San Diego, Calif.). […]

SMILES: COC(=O)[C@@]1(O)C[C@H]2O[C@]1(C)n1c3ccccc3c3c4c(c5c6ccccc6n2c5c31)C(=O)NC4 [K252a]
- NMDA/ACPD-promoted release of TNFα (TNFα): completely abolished

SMILES: O=C(O)c1cc(N(Cc2ccccc2O)Cc2cc(O)ccc2O)ccc1O [Lavendustin A]
- most effective dose in pre-treatment animals (rat arthritis model [1]; concentration inside the microdialysis fiber, spinal administration): 0.5 mM
- PWL decrease induced by knee joint inflammation (rat arthritis model [1]; spinal microdialysis pre-treatment 1.5 hours, PWL to radiant heat 4 hours after kaolin/carrageenan): significantly (p<0.05 versus 4 hours vehicle group) attenuated the PWL decreases
- development of secondary hyperalgesia (rat arthritis model [1]): significantly abrogated the development of secondary hyperalgesia
- joint circumference (rat arthritis model [2]): expected increases
- joint temperature (rat arthritis model [2]): expected increases
- effect on NMDA currents (NMDA currents): reversibly depresses NMDA currents

SMILES: O=C(O)c1cc(N(Cc2ccccc2O)Cc2ccccc2O)ccc1O [Lavendustin B]
- development of secondary hyperalgesia (rat arthritis model [1]): ineffective in altering the nociceptive outcome of knee joint inflammation

SMILES: C[C@@H]1C[C@@H]([C@H](O)CC2CC(=O)NC(=O)C2)C(=O)[C@@H](C)C1 [Cycloheximide]
- staining for NR1 in spinal cord [3]: did not totally reduce the staining to baseline
- staining for NR1 in spinal cord ([3]; listed as cycloheximide): reduced the increase in NR1 staining by about half
